From article PMC5218480 (PLoS ONE, 2017)

Tested on: MV-4-11 cells
Assay: Gene expression microarray analysis (Affymetrix PrimeView) and GSEA
Type: cell-based, human
Set-up: RFU PODN (11730768_x_at) / Fold change /veh PODN (11730768_x_at) / RFU LINC00158 (11744669_a_at) / Fold change /veh LINC00158 (11744669_a_at) / RFU DUSP10 (11751237_a_at) / Fold change /veh DUSP10 (11751237_a_at) / RFU ID3 (11757404_x_at) / Fold change /veh ID3 (11757404_x_at) / RFU PLEKHG5 (11737974_s_at) / Fold change /veh PLEKHG5 (11737974_s_at) / RFU LRRC4B (11730491_at) / Fold change /veh LRRC4B (11730491_at) / RFU GIMAP4 (11747438_a_at) / Fold change /veh GIMAP4 (11747438_a_at) / RFU KRT8 (11758183_x_at) / Fold change /veh KRT8 (11758183_x_at) / RFU CNN1 (11734310_a_at) / Fold change /veh CNN1 (11734310_a_at) / RFU VPS37D (11726825_at) / Fold change /veh VPS37D (11726825_at) / RFU C10orf10 (11716522_x_at) / Fold change /veh C10orf10 (11716522_x_at) / RFU KIR2DL2 /// KIR2DL4 /// KIR2DL5A /// KIR2DL5B /// KIR2DS1 /// KIR2DS2 /// KIR2DS3 /// KIR2DS4 /// KIR3DL3 /// KIR3DL3 /// KIR3DS1 (11738374_at) / Fold change /veh KIR2DL2 /// KIR2DL4 /// KIR2DL5A /// KIR2DL5B /// KIR2DS1 /// KIR2DS2 /// KIR2DS3 /// KIR2DS4 /// KIR3DL3 /// KIR3DL3 /// KIR3DS1 (11738374_at) / RFU C1QL1 (11718748_at) / Fold change /veh C1QL1 (11718748_at) / RFU TMPRSS4 (11747572_a_at) / Fold change /veh TMPRSS4 (11747572_a_at) / RFU HAMP (11756126_x_at) / Fold change /veh HAMP (11756126_x_at) / RFU RNFT2 (11725882_a_at) / Fold change /veh RNFT2 (11725882_a_at) / RFU NR4A2 (11747474_a_at) / Fold change /veh NR4A2 (11747474_a_at) / RFU ABCC12 (11746883_a_at) / Fold change /veh ABCC12 (11746883_a_at) / RFU TMEM136 (11760407_x_at) / Fold change /veh TMEM136 (11760407_x_at) / RFU CLDN22 /// WWC2 (11732394_at) / Fold change /veh CLDN22 /// WWC2 (11732394_at) / RFU HLA-DPB1 (11760878_x_at) / Fold change /veh HLA-DPB1 (11760878_x_at) / RFU SPINT1 (11716480_a_at) / Fold change /veh SPINT1 (11716480_a_at) / RFU GAP43 (11754022_s_at) / Fold change /veh GAP43 (11754022_s_at) / RFU A4GNT (11735810_at) / Fold change /veh A4GNT (11735810_at) / RFU PRB3 (11715151_x_at) / Fold change /veh PRB3 (11715151_x_at) / RFU TUBB4B (11761932_at) / Fold change /veh TUBB4B (11761932_at) / RFU CAPN14 (11732068_a_at) / Fold change /veh CAPN14 (11732068_a_at) / RFU TMCC2 (11721928_a_at) / Fold change /veh TMCC2 (11721928_a_at) / RFU IRGQ (11745062_a_at) / Fold change /veh IRGQ (11745062_a_at) / RFU FAM174B (11720279_a_at) / Fold change /veh FAM174B (11720279_a_at) / RFU TMPRSS4 (11748680_a_at) / Fold change /veh TMPRSS4 (11748680_a_at) / RFU FAM212B (11763350_a_at) / Fold change /veh FAM212B (11763350_a_at) / RFU PLEKHG5 (11743358_a_at) / Fold change /veh PLEKHG5 (11743358_a_at) / RFU ZSCAN30 (11745921_a_at) / Fold change /veh ZSCAN30 (11745921_a_at) / RFU CMKLR1 (11741424_a_at) / Fold change /veh CMKLR1 (11741424_a_at) / RFU LOC101060620 /// MAPK8IP1 (11723275_at) / Fold change /veh LOC101060620 /// MAPK8IP1 (11723275_at) / RFU SPTSSB (11747773_x_at) / Fold change /veh SPTSSB (11747773_x_at) / RFU PRSS12 (11739890_at) / Fold change /veh PRSS12 (11739890_at) / RFU BIN1 (11741810_x_at) / Fold change /veh BIN1 (11741810_x_at) / RFU WNT11 (11732464_a_at) / Fold change /veh WNT11 (11732464_a_at) / RFU C10orf10 (11716521_a_at) / Fold change /veh C10orf10 (11716521_a_at) / RFU C5orf56 (11738089_at) / Fold change /veh C5orf56 (11738089_at) / RFU CYB561 (11721691_x_at) / Fold change /veh CYB561 (11721691_x_at) / RFU ANKRD19P (11752326_a_at) / Fold change /veh ANKRD19P (11752326_a_at) / RFU OR2T12 /// OR2T33 /// OR2T8 (11738714_s_at) / Fold change /veh OR2T12 /// OR2T33 /// OR2T8 (11738714_s_at) / RFU VCAN (11748164_a_at) / Fold change /veh VCAN (11748164_a_at) / RFU JSRP1 (11732532_at) / Fold change /veh JSRP1 (11732532_at) / RFU KRTAP10-11 (11738290_x_at) / Fold change /veh KRTAP10-11 (11738290_x_at) / RFU MYO3A (11730013_a_at) / Fold change /veh MYO3A (11730013_a_at) / RFU EBF3 (11725865_a_at) / Fold change /veh EBF3 (11725865_a_at) / RFU CAMK2N1 (11719241_x_at) / Fold change /veh CAMK2N1 (11719241_x_at) / RFU C5orf56 (11738088_a_at) / Fold change /veh C5orf56 (11738088_a_at) / RFU OLFML3 (11715873_a_at) / Fold change /veh OLFML3 (11715873_a_at) / RFU LOC100653217 /// NTM (11731650_a_at) / Fold change /veh LOC100653217 /// NTM (11731650_a_at) / RFU MAPK11 (11762145_a_at) / Fold change /veh MAPK11 (11762145_a_at) / RFU FIZ1 (11724087_x_at) / Fold change /veh FIZ1 (11724087_x_at) / RFU OASL (11726364_x_at) / Fold change /veh OASL (11726364_x_at) / RFU SOX15 (11748057_x_at) / Fold change /veh SOX15 (11748057_x_at) / RFU CD79A (11719716_a_at) / Fold change /veh CD79A (11719716_a_at) / RFU HIST1H1D (11736915_at) / Fold change /veh HIST1H1D (11736915_at) / RFU CASKIN2 (11723855_a_at) / Fold change /veh CASKIN2 (11723855_a_at) / RFU LOC730098 (11760151_x_at) / Fold change /veh LOC730098 (11760151_x_at) / RFU OR4N2 (11742367_at) / Fold change /veh OR4N2 (11742367_at) / RFU PRRT2 (11749266_a_at) / Fold change /veh PRRT2 (11749266_a_at) / RFU SNX32 (11753110_a_at) / Fold change /veh SNX32 (11753110_a_at) / RFU CDHR5 (11726645_a_at) / Fold change /veh CDHR5 (11726645_a_at) / RFU RCAN1 (11760418_a_at) / Fold change /veh RCAN1 (11760418_a_at) / RFU FAM167A (11723789_a_at) / Fold change /veh FAM167A (11723789_a_at) / RFU FAM26E (11764081_at) / Fold change /veh FAM26E (11764081_at) / RFU ISYNA1 (11749810_s_at) / Fold change /veh ISYNA1 (11749810_s_at) / RFU ACY1 (11761880_at) / Fold change /veh ACY1 (11761880_at) / RFU 11764098_at / Fold change /veh 11764098_at / RFU SAMD14 (11745864_x_at) / Fold change /veh SAMD14 (11745864_x_at) / RFU NPB (11741838_a_at) / Fold change /veh NPB (11741838_a_at) / RFU TMPRSS6 (11731388_a_at) / Fold change /veh TMPRSS6 (11731388_a_at) / RFU KRTAP10-2 (11738614_at) / Fold change /veh KRTAP10-2 (11738614_at) / RFU ARHGAP8 /// PRR5-ARHGAP8 (11727945_x_at) / Fold change /veh ARHGAP8 /// PRR5-ARHGAP8 (11727945_x_at) / RFU KRTAP5-7 /// NADSYN1 (11734609_at) / Fold change /veh KRTAP5-7 /// NADSYN1 (11734609_at) / RFU RASL12 (11751679_a_at) / Fold change /veh RASL12 (11751679_a_at) / RFU CDKN2B (11736163_a_at) / Fold change /veh CDKN2B (11736163_a_at) / RFU PRF1 (11729649_at) / Fold change /veh PRF1 (11729649_at) / RFU, ZNF638 /// ZNF638-IT1 / Fold change vs veh, ZNF638 /// ZNF638-IT1 / RFU, PANK3 / Fold change vs veh, PANK3 / RFU, SH3YL1 / Fold change vs veh, SH3YL1 / RFU, ZEB2 / Fold change vs veh, ZEB2 / RFU, NRIP1 / Fold change vs veh, NRIP1 / RFU, PTTG1IP / Fold change vs veh, PTTG1IP / RFU, CAPN2 / Fold change vs veh, CAPN2 / RFU, MED14 / Fold change vs veh, MED14 / RFU, SNORA58 / Fold change vs veh, SNORA58 / RFU, C1orf63 / Fold change vs veh, C1orf63 / RFU, LRRFIP1 / Fold change vs veh, LRRFIP1 / RFU, NDUFAF7 / Fold change vs veh, NDUFAF7 / RFU, SLC12A2 / Fold change vs veh, SLC12A2 / RFU, IBTK / Fold change vs veh, IBTK / RFU, ESF1 / Fold change vs veh, ESF1 / Fold change vs veh, TMEM50B / RFU, TAOK1 / Fold change vs veh, TAOK1 / RFU, ACBD3 / Fold change vs veh, ACBD3 / RFU, TMA16 / Fold change vs veh, TMA16 / RFU, RWDD3 / Fold change vs veh, RWDD3 / RFU, BCAT1 / Fold change vs veh, BCAT1 / RFU, EDEM3 / Fold change vs veh, EDEM3 / RFU, TMEM33 / Fold change vs veh, TMEM33 / RFU, WDR75 / Fold change vs veh, WDR75 / RFU, AHCTF1 / Fold change vs veh, AHCTF1 / RFU, TFRC / Fold change vs veh, TFRC / RFU, ZDHHC17 / Fold change vs veh, ZDHHC17 / RFU, NOM1 / Fold change vs veh, NOM1 / RFU, ARL8B / Fold change vs veh, ARL8B / RFU, ZBTB11 / Fold change vs veh, ZBTB11 / RFU, TAMM41 / Fold change vs veh, TAMM41 / RFU, KIAA1704 /// LOC100996395 / Fold change vs veh, KIAA1704 /// LOC100996395 / RFU, ING1 / Fold change vs veh, ING1 / RFU, TRMT61B / Fold change vs veh, TRMT61B / RFU, FUBP3 / Fold change vs veh, FUBP3 / RFU, TP53 / Fold change vs veh, TP53 / RFU, TNKS2 / Fold change vs veh, TNKS2 / RFU, ZFP14 / Fold change vs veh, ZFP14 / RFU, ACTR2 / Fold change vs veh, ACTR2 / RFU, PPP3R1 / Fold change vs veh, PPP3R1 / RFU, PIK3R1 / Fold change vs veh, PIK3R1 / RFU, HNRNPA1 / Fold change vs veh, HNRNPA1 / RFU, RNF170 / Fold change vs veh, RNF170 / RFU, ZNF28 / Fold change vs veh, ZNF28 / RFU, RNGTT / Fold change vs veh, RNGTT / RFU, OGT / Fold change vs veh, OGT / RFU, BRD1 / Fold change vs veh, BRD1 / RFU, MARS / Fold change vs veh, MARS / RFU, ZNF655 / Fold change vs veh, ZNF655 / RFU, FAHD1 / Fold change vs veh, FAHD1 / RFU, BDP1 / Fold change vs veh, BDP1 / RFU, LRRCC1 / Fold change vs veh, LRRCC1 / RFU, ARID1A / Fold change vs veh, ARID1A / RFU, ZNF146 / Fold change vs veh, ZNF146 / RFU, ZNF330 / Fold change vs veh, ZNF330 / RFU, GPN3 / Fold change vs veh, GPN3 / RFU, C9orf123 / Fold change vs veh, C9orf123 / RFU, N4BP2L2 / Fold change vs veh, N4BP2L2 / RFU, ARFIP1 / Fold change vs veh, ARFIP1 / RFU, FAM179B / Fold change vs veh, FAM179B / RFU, BCL10 / Fold change vs veh, BCL10 / RFU, UHRF1BP1L / Fold change vs veh, UHRF1BP1L / RFU, BET1 / Fold change vs veh, BET1 / RFU, CNOT2 / Fold change vs veh, CNOT2 / RFU, ZNF268 / Fold change vs veh, ZNF268 / Fold change vs veh, ZNF507 / RFU, DGCR2 / Fold change vs veh, DGCR2 / RFU, WDSUB1 / Fold change vs veh, WDSUB1 / Fold change vs veh, HSP90B1 /// MIR3652 / RFU, ADSS / Fold change vs veh, ADSS / RFU, GK / Fold change vs veh, GK / RFU, ZNF148 / Fold change vs veh, ZNF148 / RFU, TAF9 / Fold change vs veh, TAF9 / RFU, SLC1A5 / Fold change vs veh, SLC1A5 / RFU, SLMO2 / Fold change vs veh, SLMO2 / RFU, ABCC4 / Fold change vs veh, ABCC4 / RFU, LOC101060439 /// RAP1B / Fold change vs veh, LOC101060439 /// RAP1B / RFU, RFX7 / Fold change vs veh, RFX7 / RFU, GTPBP10 / Fold change vs veh, GTPBP10 / RFU, CNEP1R1 / Fold change vs veh, CNEP1R1 / RFU, BIVM-ERCC5 /// ERCC5 / Fold change vs veh, BIVM-ERCC5 /// ERCC5 / RFU, ILF3 / Fold change vs veh, ILF3 / RFU 11762660_at / Fold change /veh 11762660_at / RFU VCAN (11757783_s_at) / Fold change /veh VCAN (11757783_s_at) / RFU DDX43 (11728927_at) / Fold change /veh DDX43 (11728927_at) / RFU KRT8 (11758188_x_at) / Fold change /veh KRT8 (11758188_x_at) / RFU NKD1 (11759106_at) / Fold change /veh NKD1 (11759106_at) / RFU SRD5A1 (11742802_a_at) / Fold change /veh SRD5A1 (11742802_a_at) / RFU TPSAB1 /// TPSB2 (11721975_s_at) / Fold change /veh TPSAB1 /// TPSB2 (11721975_s_at) / RFU GSTM3 (11746129_a_at) / Fold change /veh GSTM3 (11746129_a_at) / RFU IL23R (11737362_x_at) / Fold change /veh IL23R (11737362_x_at) / RFU TMEM51 (11727254_a_at) / Fold change /veh TMEM51 (11727254_a_at) / RFU PIWIL2 (11732686_x_at) / Fold change /veh PIWIL2 (11732686_x_at) / RFU ORM1 (11744905_x_at) / Fold change /veh ORM1 (11744905_x_at) / RFU CCDC152 (11743942_at) / Fold change /veh CCDC152 (11743942_at) / RFU ECM1 (11717891_a_at) / Fold change /veh ECM1 (11717891_a_at) / RFU IL23R (11748794_a_at) / Fold change /veh IL23R (11748794_a_at) / RFU TNFAIP8L3 (11732012_x_at) / Fold change /veh TNFAIP8L3 (11732012_x_at) / RFU MBOAT4 (11741988_at) / Fold change /veh MBOAT4 (11741988_at) / RFU 11764193_at / Fold change /veh 11764193_at / RFU TMEM53 (11763286_at) / Fold change /veh TMEM53 (11763286_at) / RFU MAGEB2 (11727129_at) / Fold change /veh MAGEB2 (11727129_at) / RFU TMEM200A (11744735_a_at) / Fold change /veh TMEM200A (11744735_a_at) / RFU CCDC152 (11751479_a_at) / Fold change /veh CCDC152 (11751479_a_at) / RFU FAM211A (11726209_a_at) / Fold change /veh FAM211A (11726209_a_at) / RFU RGS16 (11746705_a_at) / Fold change /veh RGS16 (11746705_a_at) / RFU VCAN (11755009_s_at) / Fold change /veh VCAN (11755009_s_at) / RFU RHOB (11743442_s_at) / Fold change /veh RHOB (11743442_s_at) / RFU RGS16 (11720943_a_at) / Fold change /veh RGS16 (11720943_a_at) / RFU RGS16 (11720944_at) / Fold change /veh RGS16 (11720944_at) / RFU, VPS4B / Fold change vs veh, VPS4B / RFU, CREB1 / Fold change vs veh, CREB1 / RFU, DNAJC13 / Fold change vs veh, DNAJC13 / RFU, GNAQ / Fold change vs veh, GNAQ / RFU, CDK5R1 / Fold change vs veh, CDK5R1 / RFU, ZRANB3 / Fold change vs veh, ZRANB3 / RFU, CUL4A / Fold change vs veh, CUL4A / RFU, CCNY / Fold change vs veh, CCNY / RFU, UFL1 / Fold change vs veh, UFL1 / RFU, COG3 / Fold change vs veh, COG3 / RFU, DIAPH2 / Fold change vs veh, DIAPH2 / RFU, SKA2 / Fold change vs veh, SKA2 / RFU, AFF3 / Fold change vs veh, AFF3 / RFU, LMF1 / Fold change vs veh, LMF1 / RFU, IPO11 / Fold change vs veh, IPO11 / RFU, DFFB / Fold change vs veh, DFFB / RFU, FOXP1 / Fold change vs veh, FOXP1 / RFU, CARD8 / Fold change vs veh, CARD8 / RFU, STRN3 / Fold change vs veh, STRN3 / RFU, ADK / Fold change vs veh, ADK / RFU, RASSF2 / Fold change vs veh, RASSF2 / RFU, WIPF1 / Fold change vs veh, WIPF1 / RFU, LARP1B / Fold change vs veh, LARP1B / RFU, RASA1 / Fold change vs veh, RASA1 / RFU, RB1 / Fold change vs veh, RB1 / RFU, PPFIA1 / Fold change vs veh, PPFIA1 / RFU, MAT2A / Fold change vs veh, MAT2A / RFU, CCT5 / Fold change vs veh, CCT5 / RFU, WDR92 / Fold change vs veh, WDR92 / RFU, CUX1 / Fold change vs veh, CUX1 / RFU, TTC7A / Fold change vs veh, TTC7A / RFU, TMEM135 / Fold change vs veh, TMEM135 / RFU, DEPTOR / Fold change vs veh, DEPTOR / RFU, CPM / Fold change vs veh, CPM / RFU, DNAJB6 / Fold change vs veh, DNAJB6 / RFU, CACNA2D3 / Fold change vs veh, CACNA2D3 / RFU, DTX4 / Fold change vs veh, DTX4 / RFU, TFCP2 / Fold change vs veh, TFCP2 / RFU, GMCL1 /// GMCL1P1 / Fold change vs veh, GMCL1 /// GMCL1P1 / RFU, AEBP2 / Fold change vs veh, AEBP2 / RFU, SNHG1 /// SNORD22 /// SNORD25 /// SNORD26 /// SNORD27 /// SNORD28 /// SNORD29 /// SNORD31 / Fold change vs veh, SNHG1 /// SNORD22 /// SNORD25 /// SNORD26 /// SNORD27 /// SNORD28 /// SNORD29 /// SNORD31 / Fold change (Aza/veh), C12orf56 (ProbeSet 11735607_a_at) / Fold change (ACY-1035/veh), C12orf56 (ProbeSet 11735607_a_at) / Fold change (Aza/veh), FGFR1OP (ProbeSet 11751329_s_at) / Fold change (ACY-1035/veh), FGFR1OP (ProbeSet 11751329_s_at) / Fold change (Aza/veh), VPS36 (ProbeSet 11739960_a_at) / Fold change (ACY-1035/veh), VPS36 (ProbeSet 11739960_a_at) / RFU SYPL1 (11715823_x_at) / Fold change /veh SYPL1 (11715823_x_at) / RFU IGFBP7 (11715501_s_at) / Fold change /veh IGFBP7 (11715501_s_at) / RFU REEP3 (11722064_at) / Fold change /veh REEP3 (11722064_at) / RFU IGLL1 (11728026_x_at) / Fold change /veh IGLL1 (11728026_x_at): dose or concentration left out as unconfirmed
Settings: ProbeSet 11719185_x_at; LIST B

With `Nc1ccc(-c2cccs2)cc1NC(=O)c1ccc2c(c1)cc(C1CC1)n2CCN1CCOCC1` [ACY-1035] as the molecule, how does the “Fold change vs veh, N4BP2L2” value read?
Its value is 1.03.
